According to PMC4772543, “Immune responses to Mycobacterial heat shock protein 70 accompany self-reactivity to human BiP in rheumatoid arthritis” (Scientific Reports, 2016):

Columns and labels:
[1] = test system: CD4+ T cells from MycHSP70-immunized HLA-DR4 transgenic mice; test: Splenic CD4+ T cell proliferation from MycHSP70-immunized HLA-DR4 transgenic mice in response to epitopes; format: cell-based, mouse; details: antigen 10 μg/mL, 72 h, irradiated splenocytes, 3H-thymidine
Protocol: Figure 5 Immunization of HLA-DR4 transgenic mice with MycHSP70. (A) HLA-DR4 transgenic mice were immunized with recombinant MycHSP70. Serum anti-MycHSP70 and anti-mouse BiP antibody titers were measured in the 21 days following the first immunization. (B) Splenic CD4+ T cell proliferation from MycHSP70-immunized HLA-DR4 transgenic mice in response to MycHSP70_287–306 and BiP336–355 epitopes. Proliferation was determined by the incorporation of [3]-H thymidine. Data were representative of at least three independent trials. ***p < 0.001.
HLA-DR4 transgenic mice were obtained from Taconic, immunized twice (day 0, 14) with 100 μg of MycHSP70 with the same volume of complete Freund’s adjuvant subcutaneously into the tails, and sacrificed on day 21. MACS-purified CD4^+ T cells (1 × 10^5/mL) were cultured with irradiated splenocytes (1 × 10^6/mL) and an antigen (10 μg/mL) in RPMI 1640 medium supplemented with 5% FCS, 2 mM L-glutamine, 100 U/ml penicillin, 100 μg/ml streptomycin, and 5 × 10^−5 M 2-mercaptoethanol in a humidified incubator at 37 °C, 5% CO2, for 72 h. ^3H-thymidine was pulsed to each well, cells were harvested after an 18-hour incubation, and analyzed with a scintillation counter.

HLA-DRB1*0405 = biological target: T1, HLA-DRB1*0405 (Homo sapiens, UniProt P01903+P01911, A100R/A169T/D86S/F76Y/I96L/K127E/L162R/M171V/N62H/P40V/Q125Y/R42H/S133A/S149N/S66Y/V115G/V209L/W38E); test: HLA-DR4 peptide binding assay (competition with labelled HA peptide); details: inhibition of labelled HA peptide (0.5 nM) binding to 40 nM purified DR4, 37 °C, 4 h
T1 construct: Soluble DR4 molecules in the supernatant were collected and purified; made in house; host or cells: Drosophila S2 cells
From the text: (§1) Figure 4 HLA-DR4 binding assay. (A) Binding activities between a HLA-DRB1*0401 and 0405 molecule and MycHSP70_287–306. Binding activities were estimated by the inhibition of peroxidase-labeled HA307–318 peptide binding to a HLA-DRB1 molecule. (B) Binding of MycHSP70_287–306 with alanine-substituted peptides to HLA-DRB1*0405 molecules. A MycHSP70_287–306-derived peptide in which an amino residue was substituted by an alanine residue. Inhibitory concentration 50% (IC50) was used as a measure of binding activity. *p < 0.05, **p < 0.01, ***p < 0.001.
(§2) The procedure to assess peptide binding to HLA-DRB1*0401 and 0405 was described in a previous study. In brief, HLA-DRA1B1*0401 and 0405 was cloned and transfected into S2 Drosophila cells. Soluble DR4 molecules in the supernatant were collected and purified through an affinity column coupled with the anti-DR antibody LB3.1. In the peptide binding assay, a 40 nM solution of purified DR4 was incubated at 37 °C for 4 h with the HA307–319 peptide (0.5 nM), which had been labeled at the N terminus with biotin. The indicated concentrations of the peptides were added as competitors to HA peptide binding. […] Bound biotinylated peptides were detected by an incubation with streptavidin-alkaline phosphatase. An automatic microplate reader (Bio-rad 550, Bio-rad) was used to measure optical density.

HLA-DRB1*0401 = biological target: T2, HLA-DRB1*0401 (Homo sapiens, UniProt P01903+P01911, A100K/A169T/F76Y/I96L/K127E/L162R/M171V/N62H/P40V/Q125Y/R42H/S133A/S149N/S66Y/V115G/V209L/W38E); test: as above; details: inhibition of labelled HA peptide (0.5 nM) binding to 40 nM purified DR4, 37 °C, 4 h
T2 construct: Soluble DR4 molecules in the supernatant were collected and purified; made in house; host or cells: Drosophila S2 cells
From the text: as §1, §2

DRTRKPFQSVIADTGISVSE [MycHSP70_287–306]
CD4+ T cell proliferation in response to peptide [1]: significant CD4^+ T cell proliferation was induced | binding to HLA-DRB1*0405 molecule (HLA-DRB1*0405): bound | binding to HLA-DRB1*0401 molecule (HLA-DRB1*0401): bound
